This passage reports Ki results from patent publication US10590128B2, “6,7,8,9-tetrahydro-5H-pyrido[2,3-d]azepine dopamine D3 ligands” (Pfizer Inc., priority 2016, dated 2020).

The target in assay [1] is human dopamine D3 receptor (hD3R) (Homo sapiens, UniProt P35462). Nature of the assay: Human D3 receptor binding assay ([^3H]-7-OH-DPAT). Particulars: CHO cells expressing hD3R, geometric mean of 2-5 determinations unless marked b (single determination), read-out: hD3 in CHO cells Ki. As to the method:
(§1) Human D2 Receptor and Human D3 Receptor Binding Assays:
(§2) These determined ligand and tissue concentrations were utilized in time course studies to determine linearity and equilibrium conditions for binding. […] The hD2R assay buffer contains 50 mM Tris (pH 7.4 @ 37° C.), 100 mM NaCl and 1 mM MgCl2. The hD3R assay buffer consists of 50 mM Tris (pH 7.4 at 37° C.), 120 mM NaCl, 5 mM MgCl2, 5 mM KCl and 2 mM CaCl2. Competitive binding experiments were initiated by the addition of 200 μL of the respective cell homogenate to 96-well plates containing […] test drugs (10 concentrations using ½ log dilutions) and 50 μL of ^3H-radioligand for a final volume of 250 μL. Non-specific binding was determined by radioligand binding in the presence of a saturating concentration of Haldol (10 μM). After the 20 minute incubation at 37° C., assay samples were rapidly filtered through Unifilter-96 GF/B PEI-coated filter plates and rinsed with ice-cold 50 mM Tris buffer (pH 7.4 at 4° C.). […] The IC50 value (concentration at which 50% inhibition of specific binding occurs) was calculated by linear regression of the concentration-response data in ActivityBase. Ki values were then calculated according to the Cheng-Prusoff equation:
(§3) [formula] where [L]=concentration of free radioligand and Kd=dissociation constant of radioligand for D3 receptor or D2 receptor.

For assay [2], the target named is human dopamine D2 receptor (hD2R) (Homo sapiens, UniProt P14416). The assay is described as follows: Human D2 receptor binding assay ([^3H]-Spiperone). The settings on record: CHO cells expressing hD2R, geometric mean of 2-5 determinations unless marked b (single determination). As to the method:
as §1, §2, §3

SMILES strings stand for the structures. pKi: −log10 of the molar value.

Sequence of human dopamine D2 receptor (hD2R) (P14416 whole entry): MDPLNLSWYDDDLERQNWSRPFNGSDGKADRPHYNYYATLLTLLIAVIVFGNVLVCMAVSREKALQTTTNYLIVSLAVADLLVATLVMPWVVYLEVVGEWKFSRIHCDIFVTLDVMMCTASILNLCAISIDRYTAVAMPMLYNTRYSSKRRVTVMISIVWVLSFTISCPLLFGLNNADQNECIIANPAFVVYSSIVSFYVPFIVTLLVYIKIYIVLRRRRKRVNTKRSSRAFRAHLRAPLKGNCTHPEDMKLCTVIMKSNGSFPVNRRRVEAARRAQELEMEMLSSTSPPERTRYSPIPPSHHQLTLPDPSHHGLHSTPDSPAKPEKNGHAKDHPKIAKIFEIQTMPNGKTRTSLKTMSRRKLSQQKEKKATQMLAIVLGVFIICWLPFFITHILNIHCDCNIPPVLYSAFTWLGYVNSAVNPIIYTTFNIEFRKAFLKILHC
Sequence of human dopamine D3 receptor (hD3R) (P35462 whole entry): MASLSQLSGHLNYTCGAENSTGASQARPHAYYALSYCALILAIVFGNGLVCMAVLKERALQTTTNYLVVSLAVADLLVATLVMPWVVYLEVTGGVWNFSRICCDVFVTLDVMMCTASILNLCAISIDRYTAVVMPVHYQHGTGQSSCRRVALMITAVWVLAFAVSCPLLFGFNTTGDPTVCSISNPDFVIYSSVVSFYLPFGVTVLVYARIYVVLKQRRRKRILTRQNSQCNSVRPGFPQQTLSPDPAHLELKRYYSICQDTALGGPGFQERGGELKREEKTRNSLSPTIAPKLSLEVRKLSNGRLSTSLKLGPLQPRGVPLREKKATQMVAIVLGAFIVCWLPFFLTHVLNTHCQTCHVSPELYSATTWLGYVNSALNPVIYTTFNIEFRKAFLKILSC

In general, pKi refers to the Ki on a negative log10 scale, so that one unit is a factor of ten. Turning to `COc1nc2c(cc1NS(=O)(=O)c1ccc(C3CCOC3)cc1)CCN(C)CC2` (stereo not drawn) [Example 36, N-(2-methoxy-7-methyl-6,7,8,9-tetrahydro-5H-pyrido[2,3-d]azepin-3-yl)-4-(tetrahydrofuran-3-yl)benzenesulfonamide], the pKi in assay [1] is 8.48; in assay [2], 6.59.
The like results for `COc1nc2c(cc1NS(=O)(=O)c1ccc(O[C@@H]3CCOC3)cc1)CCN(C)CC2` [Example 37, N-(2-methoxy-7-methyl-6,7,8,9-tetrahydro-5H-pyrido[2,3-d]azepin-3-yl)-4-[(3R)-tetrahydrofuran-3-yloxy]benzenesulfonamide] were, in that order, 8.49 and 6.59.
For `COc1nc2c(cc1NS(=O)(=O)c1ccc([C@H]3CC[C@H](OC)CC3)cc1)CCN(C)CC2` [Example 38, 4-(trans-4-methoxycyclohexyl)-N-(2-methoxy-7-methyl-6,7,8,9-tetrahydro-5H-pyrido[2,3-d]azepin-3-yl)benzenesulfonamide] the same measures were 8.53 and 6.47.
Regarding `CCN1CCc2cc(NS(=O)(=O)c3ccc([C@@H]4CCCCO4)c(F)c3)c(OC)nc2CC1` [Example 43, N-(7-ethyl-2-methoxy-6,7,8,9-tetrahydro-5H-pyrido[2,3-d]azepin-3-yl)-3-fluoro-4-[(2S)-tetrahydro-2H-pyran-2-yl]benzenesulfonamide], the results for the pKi in assay [1] and in assay [2] were 8.75 and 6.88, respectively.
On to `COc1nc2c(cc1NS(=O)(=O)c1ccc(C(C)C)cc1)CCN(CCCF)CC2` [Example 44, N-[7-(3-fluoropropyl)-2-methoxy-6,7,8,9-tetrahydro-5H-pyrido[2,3-d]azepin-3-yl]-4-(propan-2-yl)benzenesulfonamide], for which the pKi in assay [1] was 8.65; in assay [2], 6.79.
For the compound `COc1nc2c(cc1NS(=O)(=O)c1ccc(C3CCCCC3)cc1)CCN(C)CC2` [Example 45, 4-cyclohexyl-N-(2-methoxy-7-methyl-6,7,8,9-tetrahydro-5H-pyrido[2,3-d]azepin-3-yl)benzenesulfonamide], the negative-log Ki (pKi) is 9.49 in assay [1] and 8.49 in assay [2].
As for `COc1nc2c(cc1NS(=O)(=O)c1ccc(OC3CCCC3)cc1)CCN(C)CC2` [Example 46, 4-(cyclopentyloxy)-N-(2-methoxy-7-methyl-6,7,8,9-tetrahydro-5H-pyrido[2,3-d]azepin-3-yl)benzenesulfonamide], the pKi was 9.32 in assay [1] and 8.49 in assay [2].
`COc1nc2c(cc1NS(=O)(=O)c1ccc(C(F)(F)C3CCCC3)nc1)CCN(C)CC2` [Example 47, 6-[cyclopentyl(difluoro)methyl]-N-(2-methoxy-7-methyl-6,7,8,9-tetrahydro-5H-pyrido[2,3-d]azepin-3-yl)pyridine-3-sulfonamide]: the negative logarithm of the Ki (pKi) in assay [1] is 8.63; in assay [2], 6.75.
Turning to `CCO[C@H]1C[C@@](F)(c2ccc(S(=O)(=O)Nc3cc4c(nc3OC)CCN(CC)CC4)cc2)C1` [Example 48, 4-(trans-3-ethoxy-1-fluorocyclobutyl)-N-(7-ethyl-2-methoxy-6,7,8,9-tetrahydro-5H-pyrido[2,3-d]azepin-3-yl)benzenesulfonamide], the negative-log Ki (pKi) is 8.14 in assay [1] and 6.03 in assay [2].
With `CCCN1CCc2cc(NS(=O)(=O)c3ccc(C(C)C)cc3)c(OC)nc2CC1` [Example 49, N-(2-methoxy-7-propyl-6,7,8,9-tetrahydro-5H-pyrido[2,3-d]azepin-3-yl)-4-(propan-2-yl)benzenesulfonamide], the negative logarithm of the Ki (pKi) in assay [1] was 9.06; in assay [2], 6.99.
For `CCCN1CCc2cc(NS(=O)(=O)c3ccc(OCC)cc3)c(OC)nc2CC1` [Example 50, 4-ethoxy-N-(2-methoxy-7-propyl-6,7,8,9-tetrahydro-5H-pyrido[2,3-d]azepin-3-yl)benzenesulfonamide] the same measures were 8.49 and 6.47.
On to `CCN1CCc2cc(NS(=O)(=O)c3ccc(C(C)C)cc3)c(OC)nc2CC1` [Example 51, N-(7-ethyl-2-methoxy-6,7,8,9-tetrahydro-5H-pyrido[2,3-d]azepin-3-yl)-4-(propan-2-yl)benzenesulfonamide], for which the values for the negative logarithm of the Ki (pKi) in assay [1] and in assay [2] were 8.95 and 6.98, respectively.
As to `CCOc1ccc(S(=O)(=O)Nc2cc3c(nc2OC)CCN(CC)CC3)cc1` [Example 52, 4-ethoxy-N-(7-ethyl-2-methoxy-6,7,8,9-tetrahydro-5H-pyrido[2,3-d]azepin-3-yl)benzenesulfonamide], the pKi in assay [1] is 8.59; in assay [2], 6.36.
On to `CCN1CCc2cc(NS(=O)(=O)c3ccc(C)cc3)c(OC)nc2CC1` [Example 53, N-(7-ethyl-2-methoxy-6,7,8,9-tetrahydro-5H-pyrido[2,3-d]azepin-3-yl)-4-methylbenzenesulfonamide], for which the pKi in assay [1] is 8.56; in assay [2], 6.50.
For `COc1nc2c(cc1NS(=O)(=O)c1ccc(C(C)C)cc1)CCN(C)CC2` [Example 54, N-(2-methoxy-7-methyl-6,7,8,9-tetrahydro-5H-pyrido[2,3-d]azepin-3-yl)-4-(propan-2-yl)benzenesulfonamide], the pKi is 9.42 in assay [1] and 7.84 in assay [2].
As for `COc1nc2c(cc1NS(=O)(=O)c1ccc(C3(C(F)(F)F)CC3)cc1)CCN(C)CC2` [Example 55, N-(2-methoxy-7-methyl-6,7,8,9-tetrahydro-5H-pyrido[2,3-d]azepin-3-yl)-4-[1-(trifluoromethyl)cyclopropyl]benzenesulfonamide], the negative logarithm of the Ki (pKi) was 9.28 in assay [1] and 7.54 in assay [2].
As for `CCN1CCc2nc(OC)c(NS(=O)(=O)c3ccc(C(C)C)cc3)cc2C(C)C1` (stereo not drawn) [Example 56, N-(7-ethyl-2-methoxy-5-methyl-6,7,8,9-tetrahydro-5H-pyrido[2,3-d]azepin-3-yl)-4-(propan-2-yl)benzenesulfonamide], the results for the pKi in assay [1] and in assay [2] were 8.67 and 6.79, respectively.
With `CCN1CCc2cc(NS(=O)(=O)c3ccc(C4CCOCC4)cc3)c(OC)nc2CC1` [Example 57, N-(7-ethyl-2-methoxy-6,7,8,9-tetrahydro-5H-pyrido[2,3-d]azepin-3-yl)-4-(tetrahydro-2H-pyran-4-yl)benzenesulfonamide], the pKi is 8.50 in assay [1] and 6.64 in assay [2].
Take `CCN1CCc2cc(NS(=O)(=O)c3ccc4c(c3)CCCO4)c(OC)nc2CC1` [Example 58, N-(7-ethyl-2-methoxy-6,7,8,9-tetrahydro-5H-pyrido[2,3-d]azepin-3-yl)-3,4-dihydro-2H-chromene-6-sulfonamide]: the negative-log Ki (pKi) was 8.36 in assay [1] and 6.12 in assay [2].
`CCN1CCc2cc(NS(=O)(=O)c3ccc(OC(F)F)cc3)c(OC)nc2CC1` [Example 59, 4-(difluoromethoxy)-N-(7-ethyl-2-methoxy-6,7,8,9-tetrahydro-5H-pyrido[2,3-d]azepin-3-yl)benzenesulfonamide]: the pKi was 7.94 in assay [1] and 5.64 in assay [2].
Regarding `CCN1CCc2cc(NS(=O)(=O)c3ccc(Oc4ccccc4)nc3)c(OC)nc2CC1` [Example 60, N-(7-ethyl-2-methoxy-6,7,8,9-tetrahydro-5H-pyrido[2,3-d]azepin-3-yl)-6-phenoxypyridine-3-sulfonamide], the negative-log Ki (pKi) in assay [1] is 8.53; in assay [2], 6.40.
In the case of `CCN1CCc2cc(NS(=O)(=O)c3ccc(C)c(C)c3)c(OC)nc2CC1` [Example 61, N-(7-ethyl-2-methoxy-6,7,8,9-tetrahydro-5H-pyrido[2,3-d]azepin-3-yl)-3,4-dimethylbenzenesulfonamide], the pKi was 8.63 in assay [1] and 6.41 in assay [2].
Regarding `CCCc1ccc(S(=O)(=O)Nc2cc3c(nc2OC)CCN(CC)CC3)cc1` [Example 62, N-(7-ethyl-2-methoxy-6,7,8,9-tetrahydro-5H-pyrido[2,3-d]azepin-3-yl)-4-propylbenzenesulfonamide], the pKi is 9.40 in assay [1] and 7.28 in assay [2].
Turning to `CCN1CCc2cc(NS(=O)(=O)c3ccc(OC4CCCC4)cc3)c(OC)nc2CC1` [Example 63, 4-(cyclopentyloxy)-N-(7-ethyl-2-methoxy-6,7,8,9-tetrahydro-5H-pyrido[2,3-d]azepin-3-yl)benzenesulfonamide], the pKi in assay [1] is 9.49; in assay [2], 7.94.
Turning to `CCN1CCc2cc(NS(=O)(=O)c3ccc4c(c3)CCC(C)(C)O4)c(OC)nc2CC1` [Example 64, N-(7-ethyl-2-methoxy-6,7,8,9-tetrahydro-5H-pyrido[2,3-d]azepin-3-yl)-2,2-dimethyl-3,4-dihydro-2H-chromene-6-sulfonamide], the negative logarithm of the Ki (pKi) in assay [1] is 9.32; in assay [2] it was 7.67.
Turning to `CCN1CCc2cc(NS(=O)(=O)c3ccc(C)cc3C)c(OC)nc2CC1` [Example 65, N-(7-ethyl-2-methoxy-6,7,8,9-tetrahydro-5H-pyrido[2,3-d]azepin-3-yl)-2,4-dimethylbenzenesulfonamide], the pKi is 8.81 in assay [1] and 6.56 in assay [2].
Turning to `CCN1CCc2cc(NS(=O)(=O)c3ccc4c(c3)CCCO4)c(OC(C)C)nc2CC1` [Example 66, N-[7-ethyl-2-(propan-2-yloxy)-6,7,8,9-tetrahydro-5H-pyrido[2,3-d]azepin-3-yl]-3,4-dihydro-2H-chromene-6-sulfonamide], the values for the pKi in assay [1] and in assay [2] were 8.06 and 5.84, respectively.
